The results in this text go back to US20100204203A1, “Chemical Compounds 637: Pyridopyrimidinediones as PDE4 Inhibitors” (priority 2007, published 2010).

For the assay, the target named is recombinant Human Phosphodiesterase B2 (PDE4B2) (Homo sapiens, UniProt Q07343). The assay can be described thus: Human Phosphodiesterase B2 Radiometric Assay (yttrium silicate SPA beads, [3H]cyclic AMP). The class given is biochemical. The following applies: recombinant human PDE4B2, radiometric SPA assay, 8 nM [3H]cyclic AMP; for IC50: read-out: PDE4B2 pIC50 (converted). The essentials:
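Read-out is scintillation proximity: yttrium silicate beads (with 18 mM ZnSO4, added to stop the reaction) bind 5′AMP formed from 8 nM [3H]cAMP over 20 min. Beforehand, compound and 0.1 mg/mL enzyme were preincubated 30 min at 30 °C in pH 7.5 HEPES buffer with MgCl2, EGTA and Brij 35; pIC50 values were curve-fitted.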

recombinant Human Phosphodiesterase B2 (PDE4B2), sequence (Q07343 1-564 isoform Q07343-2): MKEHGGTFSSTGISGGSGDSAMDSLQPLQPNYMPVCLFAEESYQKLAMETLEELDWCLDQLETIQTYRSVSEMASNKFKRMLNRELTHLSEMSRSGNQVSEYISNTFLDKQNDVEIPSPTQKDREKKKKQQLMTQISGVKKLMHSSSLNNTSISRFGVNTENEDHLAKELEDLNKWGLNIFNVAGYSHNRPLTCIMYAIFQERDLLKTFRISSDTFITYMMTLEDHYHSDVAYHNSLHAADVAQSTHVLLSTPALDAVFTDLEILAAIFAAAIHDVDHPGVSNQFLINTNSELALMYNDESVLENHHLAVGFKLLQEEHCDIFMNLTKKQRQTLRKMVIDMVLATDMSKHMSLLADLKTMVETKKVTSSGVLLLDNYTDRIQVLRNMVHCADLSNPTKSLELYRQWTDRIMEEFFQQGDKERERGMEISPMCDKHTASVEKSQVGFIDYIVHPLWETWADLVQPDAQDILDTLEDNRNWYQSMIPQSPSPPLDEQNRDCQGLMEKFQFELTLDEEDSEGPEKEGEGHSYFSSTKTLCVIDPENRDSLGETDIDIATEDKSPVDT

With `Cc1cccc2nc(C(=O)N[C@H]3CC[C@@H](n4c(=O)c5cc(F)cnc5n(-c5cccc(-c6ccc(CN7CCNCC7)cc6)c5)c4=O)CC3)cn12` [Example 111, N-{cis-4-[6-fluoro-2,4-dioxo-1-[4′-(piperazin-1-ylmethyl)biphenyl-3-yl]-1,4-dihydropyrido[2,3-d]pyrimidin-3(2H)-yl]cyclohexyl}-5-methylimidazo[1,2-a]pyridine-2-carboxamide], the IC50 is 0.0126 nM.
On the same count and under the same terms, the same measure for `Cc1cc(C(=O)N[C@H]2CC[C@@H](n3c(=O)c4cc(F)cnc4n(-c4cccc(-c5ccc(CN6CCCCC6)cc5)c4)c3=O)CC2)nn1C` [Example 112, N-{cis-4-[6-fluoro-2,4-dioxo-1-[4′-(piperidin-1-ylmethyl)biphenyl-3-yl]-1,4-dihydropyrido[2,3-d]pyrimidin-3(2H)-yl]cyclohexyl}-1,5-dimethyl-1H-pyrazole-3-carboxamide]: 0.0501 nM; for `Cc1cc(C(=O)N[C@H]2CC[C@@H](n3c(=O)c4cc(F)cnc4n(-c4cccc(-c5ccc(CN(C)CCN(C)C)cc5)c4)c3=O)CC2)nn1C` [Example 113, N-{cis-4-[1-(4′-{[[2-(dimethylamino)ethyl](methyl)amino]methyl}biphenyl-3-yl)-6-fluoro-2,4-dioxo-1,4-dihydropyrido[2,3-d]pyrimidin-3(2H)-yl]cyclohexyl}-1,5-dimethyl-1H-pyrazole-3-carboxamide]: 0.0126 nM.
Same read-out and setting: under `Cc1cc(C(=O)N[C@H]2CC[C@@H](n3c(=O)c4cc(F)cnc4n(-c4cccc(-c5ccc(CN6CCN(C(C)C)CC6)cc5)c4)c3=O)CC2)nn1C` [Example 114, N-{cis-4-[6-fluoro-1-{4′-[(4-isopropylpiperazin-1-yl)methyl]biphenyl-3-yl}-2,4-dioxo-1,4-dihydropyrido[2,3-d]pyrimidin-3(2H)-yl]cyclohexyl}-1,5-dimethyl-1H-pyrazole-3-carboxamide] stands 0.00794 nM; under `Cc1cc(C(=O)N[C@H]2CC[C@@H](n3c(=O)c4cc(F)cnc4n(-c4cccc(-c5ccc(CNCCC(C)C)cc5)c4)c3=O)CC2)nn1C` [Example 115, N-{cis-4-[6-fluoro-1-(4′-{[(3-methylbutyl)amino]methyl}biphenyl-3-yl)-2,4-dioxo-1,4-dihydropyrido[2,3-d]-pyrimidin-3(2H)-yl]cyclohexyl}-1,5-dimethyl-1H-pyrazole-3-carboxamide], 0.0398 nM; under `Cc1cc(C(=O)N[C@H]2CC[C@@H](n3c(=O)c4cc(F)cnc4n(-c4cccc(-c5ccc(CN6CCC(CO)CC6)cc5)c4)c3=O)CC2)nn1C` [Example 116, N-{cis-4-[6-fluoro-1-(4′-{[4-(hydroxymethyl)piperidin-1-yl]methyl}biphenyl-3-yl)-2,4-dioxo-1,4-dihydropyrido[2,3-d]pyrimidin-3(2H)-yl]cyclohexyl}-1,5-dimethyl-1H-pyrazole-3-carboxamide], 0.0501 nM.
`COCCNCc1ccc(-c2cccc(-n3c(=O)n([C@H]4CC[C@@H](NC(=O)c5cc(C)n(C)n5)CC4)c(=O)c4cc(F)cnc43)c2)cc1` [Example 117, N-{cis-4-[6-fluoro-1-(4′-{[(2-methoxyethyl)amino]methyl}biphen-yl-3-yl)-2,4-dioxo-1,4-dihydropyrido[2,3-d]pyrimidin-3(2H)-yl]cyclohexyl}-1,5-dimethyl-1H-pyrazole-3-carboxamide]: the IC50 is 0.126 nM.
In the case of `Cc1cc(C(=O)N[C@H]2CC[C@@H](n3c(=O)c4cc(F)cnc4n(-c4cccc(-c5ccc(CN6CCC(N7CCCC7)CC6)cc5)c4)c3=O)CC2)nn1C` [Example 118, N-{cis-4-[6-fluoro-2,4-dioxo-1-{4′-[(4-pyrrolidin-1-ylpiperidin-1-yl)methyl]biphenyl-3-yl}-1,4-dihydropyrido[2,3-d]pyrimidin-3(2H)-yl]cyclohexyl}-1,5-dimethyl-1H-pyrazole-3-carboxamide], the IC50 was 0.0251 nM.
Same read-out and setting: under `O=C(N[C@H]1CC[C@@H](n2c(=O)c3cc(F)cnc3n(-c3cccc(-c4ccc(CN5CCCCC5)cc4)c3)c2=O)CC1)c1cn2c(n1)CCCC2` [Example 119, N-{cis-4-[6-fluoro-2,4-dioxo-1-[4′-(piperidin-1-ylmethyl)biphenyl-3-yl]-1,4-dihydropyrido[2,3-d]pyrimidin-3(2H)-yl]cyclohexyl}-5,6,7,8-tetrahydroimidazo[1,2-a]pyridine-2-carboxamide] stands 0.316 nM; under `O=C(N[C@H]1CC[C@@H](n2c(=O)c3cc(F)cnc3n(-c3cccc(-c4ccc(CN5CCN(CCO)CC5)cc4)c3)c2=O)CC1)c1cn2c(n1)CCCC2` [Example 120, N-{cis-4-[6-fluoro-1-(4′-{[4-(2-hydroxyethyl)piperazin-1-yl]methyl}biphenyl-3-yl)-2,4-dioxo-1,4-dihydropyrido[2,3-d]pyrimidin-3(2H)-yl]cyclohexyl}-5,6,7,8-tetrahydroimidazo[1,2-a]pyridine-2-carboxamide], 0.0316 nM; under `CC(C)N(CCO)Cc1ccc(-c2cccc(-n3c(=O)n([C@H]4CC[C@@H](NC(=O)c5cn6c(n5)CCCC6)CC4)c(=O)c4cc(F)cnc43)c2)cc1` [Example 121, N-{cis-4-[6-fluoro-1-(4′-{[(2-hydroxyethyl)(isopropyl)amino]methyl}biphenyl-3-yl)-2,4-dioxo-1,4-dihydropyrido[2,3-d]pyrimidin-3(2H)-yl]cyclohexyl}-5,6,7,8-tetrahydroimidazo[1,2-a]pyridine-2-carboxamide], 0.158 nM.
Still for that read-out and setting: the same measure for `CC(C)CCNCc1ccc(-c2cccc(-n3c(=O)n([C@H]4CC[C@@H](NC(=O)c5cn6c(n5)CCCC6)CC4)c(=O)c4cc(F)cnc43)c2)cc1` [Example 122, N-{cis-4-[6-fluoro-1-(4′-{[(3-methylbutyl)amino]methyl}biphenyl-3-yl)-2,4-dioxo-1,4-dihydropyrido[2,3-d]pyrimidin-3(2H)-yl]cyclohexyl}-5,6,7,8-tetrahydroimidazo[1,2-a]pyridine-2-carboxamide]: 0.0501 nM; for `CCOCCNCc1ccc(-c2cccc(-n3c(=O)n([C@H]4CC[C@@H](NC(=O)c5cn6c(n5)CCCC6)CC4)c(=O)c4cc(F)cnc43)c2)cc1` [Example 123, N-{cis-4-[1-(4′-{[(2-ethoxyethyl)amino]methyl}biphenyl-3-yl)-6-fluoro-2,4-dioxo-1,4-dihydropyrido[2,3-d]pyrimidin-3(2H)-yl]cyclohexyl}-5,6,7,8-tetrahydroimidazo[1,2-a]pyridine-2-carboxamide]: 0.0398 nM.
For `CN(C)C1(C(=O)N[C@H]2CC[C@@H](n3c(=O)c4cc(F)cnc4n(-c4cccc(-c5ccc(CN6CCOCC6)cc5)c4)c3=O)CC2)CC1` [Example 124, 1-(dimethylamino)-N-{cis-4-[6-fluoro-1-[4′-(morpholin-4-ylmethyl)biphenyl-3-yl]-2,4-dioxo-1,4-dihydropyrido[2,3-d]pyrimidin-3(2H)-yl]cyclohexyl}cyclopropane-carboxamide], the IC50 was 0.00631 nM.
For `CN(C)C1(C(=O)N[C@H]2CC[C@@H](n3c(=O)c4cc(F)cnc4n(-c4cccc(-c5ccc(CN6CCCCC6)cc5)c4)c3=O)CC2)CC1` [Example 125, 1-(dimethylamino)-N-{cis-4-[6-fluoro-2,4-dioxo-1-[4′-(piperidin-1-ylmethyl)biphenyl-3-yl]-1,4-dihydropyrido[2,3-d]pyrimidin-3(2H)-yl]cyclohexyl}cyclopropane-carboxamide], the IC50 is 0.158 nM.
Consider `CC(C)N(CCO)Cc1ccc(-c2cccc(-n3c(=O)n([C@H]4CC[C@@H](NC(=O)C5(N(C)C)CC5)CC4)c(=O)c4cc(F)cnc43)c2)cc1` [Example 126, 1-(dimethylamino)-N-{cis-4-[6-fluoro-1-(4′-{[(2-hydroxyethyl)(isopropyl)amino]methyl}biphenyl-3-yl)-2,4-dioxo-1,4-dihydropyrido[2,3-d]pyrimidin-3(2H)-yl]cyclohexyl}cyclopropane-carboxamide], for which the IC50 is 0.0631 nM.
The same measure, in the same setting: the same measure for `CCN(CC)Cc1ccc(-c2cccc(-n3c(=O)n([C@H]4CC[C@@H](NC(=O)C5(N(C)C)CC5)CC4)c(=O)c4cc(F)cnc43)c2)cc1` [Example 127, N-{cis-4-[1-{4′-[(diethylamino)methyl]biphenyl-3-yl}-6-fluoro-2,4-dioxo-1,4-dihydropyrido[2,3-d]pyrimidin-3(2H)-yl]cyclohexyl}-1-(dimethylamino)cyclopropanecarboxamide]: 0.2 nM.
With `CN(C)C1(C(=O)NC2CCC(n3c(=O)c4cc(F)cnc4n(-c4cccc(-c5ccc(CN6CCC(CO)CC6)cc5)c4)c3=O)CC2)CC1` (centres unmarked) [Example 128, 1-(dimethylamino)-N-{4-[6-fluoro-1-(4′-{[4-(hydroxymethyl)piperidin-1-yl]methyl}biphenyl-3-yl)-2,4-dioxo-1,4-dihydropyrido[2,3-d]pyrimidin-3(2H)-yl]cyclohexyl}cyclopropane-carboxamide], the “PDE4B2 pIC50” value is 9.8.
As for `CC(C)N1CCN(Cc2ccc(-c3cccc(-n4c(=O)n([C@H]5CC[C@@H](NC(=O)C6(N(C)C)CC6)CC5)c(=O)c5cc(F)cnc54)c3)cc2)CC1` [Example 129, 1-(dimethylamino)-N-{cis-4-[6-fluoro-1-{4′-[(4-isopropylpiperazin-1-yl)methyl]biphenyl-3-yl}-2,4-dioxo-1,4-dihydropyrido[2,3-d]pyrimidin-3(2H)-yl]cyclohexyl}cyclopropanecarboxamide], the IC50 is 0.0398 nM.
For the compound `CCN1CCN(Cc2ccc(-c3cccc(-n4c(=O)n([C@H]5CC[C@@H](NC(=O)C6(N(C)C)CC6)CC5)c(=O)c5cc(F)cnc54)c3)cc2)CC1` [Example 130, 1-(dimethylamino)-N-{cis-4-[1-{4′-[(4-ethylpiperazin-1-yl)methyl]biphenyl-3-yl}-6-fluoro-2,4-dioxo-1,4-dihydropyrido[2,3-d]pyrimidin-3(2H)-yl]cyclohexyl}cyclopropane carboxamide], the IC50 is 0.0251 nM.
